From ChEMBL document CHEMBL6092219, “Structure-Based Design of Covalent SARS-CoV-2 Papain-like Protease Inhibitors” (J Med Chem, 2024)
The source made the active and inactive calls. No cut-off for these calls is given here.

System: SARS-CoV-2
Experiment: microbe, parasite or virus in culture
Type: functional, organism-based, Vero E6
Details: Severe acute respiratory syndrome coronavirus 2, Vero C1008, 24 h

| Compound | EC50 [µM] |
| --- | --- |
| CCn1ccc(-c2cc(-c3cnn(C)c3)cc([C@@H](C)NC(=O)c3ccccc3CCC(=O)NNC(=O)/C=C/C(=O)OC(C)(C)C)c2)n1 | 0.0992 |
| CCn1ccc(-c2cc(-c3cnn(C)c3)cc([C@@H](C)NC(=O)c3ccccc3CCC(=O)NNC(=O)/C=C/C(=O)NC3CC(F)(F)C3)c2)n1 | 2.4 |
| CCn1ccc(-c2cc(-c3cnn(C)c3)cc([C@@H](C)NC(=O)c3ccccc3CCC(=O)NNC(=O)/C=C/C(=O)N3CC(F)(F)C3)c2)n1 | 0.185 |
| CCn1ccc(-c2cc(-c3cnn(C)c3)cc([C@@H](C)NC(=O)c3ccccc3CCC(=O)NNC(=O)/C=C/C(=O)N3CC(F)C3)c2)n1 | 0.935 |
| CCn1ccc(-c2cc(-c3cnn(C)c3)cc([C@@H](C)NC(=O)c3ccccc3CCC(=O)NNC(=O)/C=C/C(=O)NC3CC3)c2)n1 | 5.2 |
| CCn1ccc(-c2cc(-c3cnn(C)c3)cc([C@@H](C)NC(=O)c3ccccc3CCC(=O)NNC(=O)/C=C/C(=O)NC34CC(C3)C4)c2)n1 | 6.13 |
| CCn1ccc(-c2cc(-c3cnn(C)c3)cc([C@@H](C)NC(=O)c3ccccc3CCC(=O)NNC(=O)/C=C/C(=O)N3CCC3)c2)n1 | 3.2 |

System: not listed separately
Experiment: Cytotoxicity against African green monkey Vero E6 cells incubated for 48 hrs by Neutral Red method
Type: toxicity, cell-based, Vero C1008
Details: chlorocebus sabaeus, Vero E6 cells

| Compound | CC50 at 48 h [µM] |
| --- | --- |
| CCn1ccc(-c2cc(-c3cnn(C)c3)cc([C@@H](C)NC(=O)c3ccccc3CCC(=O)NCC(=O)CF)c2)n1 | > 250 |
| CCOC(=O)/C=C/C(=O)NCC(=O)NCc1ccccc1C(=O)NC1(c2cc(-c3cnn(C)c3)cc(-c3ccn(CC)n3)c2)CC1 | > 250 |
| CCn1ccc(-c2cc(-c3cnn(C)c3)cc([C@@H](C)NC(=O)c3ccccc3CCC(=O)NNC(=O)/C=C/C(=O)NC3CC(F)(F)C3)c2)n1 | > 250 |
| CCn1ccc(-c2cc(-c3cnn(C)c3)cc([C@@H](C)NC(=O)c3ccccc3CCC(=O)NCCC#N)c2)n1 | 146 |
| C=CC(=O)NNC(=O)CCc1ccccc1C(=O)N[C@H](C)c1cc(-c2cnn(C)c2)cc(-c2ccn(CC)n2)c1 | > 250 |
| CCn1ccc(-c2cc(-c3cnn(C)c3)cc([C@@H](C)NC(=O)c3ccccc3CCC(=O)NNC(=O)C34CC(C3)C4)c2)n1 | > 250 |
| CCn1ccc(-c2cc(-c3cnn(C)c3)cc([C@@H](C)NC(=O)c3ccccc3CCC(=O)NNC(=O)/C=C/C(=O)N(C)C)c2)n1 | > 250 |
| CCn1ccc(-c2cc(-c3cnn(C)c3)cc([C@@H](C)NC(=O)c3ccccc3CCC(=O)NNC(=O)/C=C/C(=O)N3CC(F)C3)c2)n1 | > 250 |
| CCn1ccc(-c2cc(-c3cnn(C)c3)cc([C@@H](C)NC(=O)c3ccccc3CCC(=O)NNC(=O)/C=C/C(=O)NC3CC3)c2)n1 | > 250 |
| CCn1ccc(-c2cc(-c3cnn(C)c3)cc([C@@H](C)NC(=O)c3ccccc3CCC(=O)NNC(=O)/C=C/C(=O)NC34CC(C3)C4)c2)n1 | > 250 |
| CCn1ccc(-c2cc(-c3cnn(C)c3)cc([C@@H](C)NC(=O)c3ccccc3CCC(=O)NNC(=O)/C=C/C(=O)N3CCC3)c2)n1 | > 250 |

Target: T1, Replicase polyprotein 1ab (Severe acute respiratory syndrome coronavirus 2, UniProt P0DTD1)
Experiment: Inhibition of SARS-CoV-2 PL protease using ISG15-AMC as substrate preincubated for 30 mins followed by substrate addition measured for 1 hr
Details: not given

| Compound | Ki [µM] |
| --- | --- |
| CCn1ccc(-c2cc(-c3cnn(C)c3)cc([C@@H](C)NC(=O)c3ccccc3CCC(=O)NNC(=O)/C=C/C(=O)N3CC(F)(F)C3)c2)n1 | 0.00136 |

System: not listed separately
Experiment: Cmax in C57BL/6J mouse at 50 mg/kg, po measured 5 hrs by LC/MS/MS analysis
Type: ADME, organism-based
Details: in vivo

| Compound | Cmax [µg/mL] |
| --- | --- |
| CCn1ccc(-c2cc(-c3cnn(C)c3)cc([C@@H](C)NC(=O)c3ccccc3CCC(=O)NNC(=O)/C=C/C(=O)N3CCC3)c2)n1 | < 0.01 |

Target: T1, Replicase polyprotein 1ab
Experiment: Inhibition of SARS-CoV-2 PL protease preincubated for 30 mins followed by substrate addition measured after 3 hrs
Details: not given

| Compound | IC50 [µM] |
| --- | --- |
| CCn1ccc(-c2cc(-c3cnn(C)c3)cc([C@@H](C)NC(=O)c3ccccc3CCC(=O)NNC(=O)/C=C/C(=O)OC(C)(C)C)c2)n1 | 0.1 |
| CCOC(=O)/C=C/C(=O)NCC(=O)NCc1ccccc1C(=O)NC1(c2cc(-c3cnn(C)c3)cc(-c3ccn(CC)n3)c2)CC1 | 1.1 |
| CCn1ccc(-c2cc(-c3cnn(C)c3)cc([C@@H](C)NC(=O)c3ccccc3CCC(=O)NNC(=O)/C=C/C(=O)NC3CC(F)(F)C3)c2)n1 | 0.2 |
| CCn1ccc(-c2cc(-c3cnn(C)c3)cc([C@@H](C)NC(=O)c3ccccc3CCC(=O)NCCC#N)c2)n1 | > 10 |
| C=CC(=O)NNC(=O)CCc1ccccc1C(=O)N[C@H](C)c1cc(-c2cnn(C)c2)cc(-c2ccn(CC)n2)c1 | 3.1 |
| CCn1ccc(-c2cc(-c3cnn(C)c3)cc([C@@H](C)NC(=O)c3ccccc3CCC(=O)NNC(=O)/C=C/C(=O)N(C)C)c2)n1 | 0.7 |
| CCn1ccc(-c2cc(-c3cnn(C)c3)cc([C@@H](C)NC(=O)c3ccccc3CCC(=O)NNC(=O)/C=C/C(=O)N3CC(F)(F)C3)c2)n1 | 0.1 |
| CCn1ccc(-c2cc(-c3cnn(C)c3)cc([C@@H](C)NC(=O)c3ccccc3CCC(=O)NNC(=O)/C=C/C(=O)N3CC(F)C3)c2)n1 | 0.1 |
| CCn1ccc(-c2cc(-c3cnn(C)c3)cc([C@@H](C)NC(=O)c3ccccc3CCC(=O)NNC(=O)/C=C/C(=O)NC3CC3)c2)n1 | 0.2 |
| CCn1ccc(-c2cc(-c3cnn(C)c3)cc([C@@H](C)NC(=O)c3ccccc3CCC(=O)NNC(=O)/C=C/C(=O)NC34CC(C3)C4)c2)n1 | 0.1 |
| CCn1ccc(-c2cc(-c3cnn(C)c3)cc([C@@H](C)NC(=O)c3ccccc3CCC(=O)NNC(=O)/C=C/C(=O)N3CCC3)c2)n1 | 0.1 |

System: not listed separately
Experiment: Metabolic stability in mouse liver microsomes assessed as half life at 1 uM incubated for 60 mins by LC/MS/MS analysis
Type: ADME, Microsome
Details: liver microsomes

| Compound | half-life at 1 µM [h] |
| --- | --- |
| CCn1ccc(-c2cc(-c3cnn(C)c3)cc([C@@H](C)NC(=O)c3ccccc3CCC(=O)NNC(=O)/C=C/C(=O)NC3CC(F)(F)C3)c2)n1 | 1.31 |
| CCn1ccc(-c2cc(-c3cnn(C)c3)cc([C@@H](C)NC(=O)c3ccccc3CCC(=O)NNC(=O)/C=C/C(=O)N3CC(F)C3)c2)n1 | 1.3 |
| CCn1ccc(-c2cc(-c3cnn(C)c3)cc([C@@H](C)NC(=O)c3ccccc3CCC(=O)NNC(=O)/C=C/C(=O)NC3CC3)c2)n1 | > 2.42 |

Same assay, conditions: microsomes, 1 h, 1 µM

| Compound | t1/2 [h] |
| --- | --- |
| CCn1ccc(-c2cc(-c3cnn(C)c3)cc([C@@H](C)NC(=O)c3ccccc3CCC(=O)NNC(=O)/C=C/C(=O)N3CCC3)c2)n1 | > 2.42 |

Target: T1, Replicase polyprotein 1ab
Experiment: Inhibition of SARS-CoV-2 PL protease using Ub-AMC as substrate preincubated for 30 mins followed by substrate addition measured for 1 hr
Details: not given

| Compound | Ki [µM] |
| --- | --- |
| CCn1ccc(-c2cc(-c3cnn(C)c3)cc([C@@H](C)NC(=O)c3ccccc3CCC(=O)NNC(=O)/C=C/C(=O)N3CC(F)(F)C3)c2)n1 | 0.00025 |

Target: Ubiquitin carboxyl-terminal hydrolase 14 (Homo sapiens) (UniProt P54578)
Experiment: Inhibition of N-terminal 6His-tagged recombinant human USP14 (91 to 494 residues) expressed in Escherichia coli using Ub-AMC as substrate upto 100 uM
Details: not given

Chain of Ubiquitin carboxyl-terminal hydrolase 14 (Homo sapiens) (P54578 whole entry, the tested form may be a part): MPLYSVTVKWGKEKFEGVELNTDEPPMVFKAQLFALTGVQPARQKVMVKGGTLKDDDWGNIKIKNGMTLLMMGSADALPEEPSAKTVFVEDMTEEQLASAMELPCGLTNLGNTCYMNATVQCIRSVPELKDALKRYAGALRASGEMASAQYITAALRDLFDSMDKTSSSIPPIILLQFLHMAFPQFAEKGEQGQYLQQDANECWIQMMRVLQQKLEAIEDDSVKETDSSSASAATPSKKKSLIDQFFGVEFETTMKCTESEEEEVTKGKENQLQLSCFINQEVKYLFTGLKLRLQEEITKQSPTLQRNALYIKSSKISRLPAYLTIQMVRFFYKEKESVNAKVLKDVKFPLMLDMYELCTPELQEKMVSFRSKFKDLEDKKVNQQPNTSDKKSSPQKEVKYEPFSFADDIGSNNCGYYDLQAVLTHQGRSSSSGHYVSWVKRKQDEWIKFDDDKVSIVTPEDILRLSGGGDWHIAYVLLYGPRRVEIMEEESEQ

| Compound | inhibition |
| --- | --- |
| CCn1ccc(-c2cc(-c3cnn(C)c3)cc([C@@H](C)NC(=O)c3ccccc3CCC(=O)NNC(=O)/C=C/C(=O)N3CC(F)(F)C3)c2)n1 | inactive |

Target: Ubiquitin carboxyl-terminal hydrolase 7 (Homo sapiens) (UniProt Q93009)
Experiment: Inhibition of N-terminal polyhis/GST-tagged full-length human USP7 (1 to 1102 residues) expressed in baculovirus infected insect cells using Ub-AMC as substrate upto 100 uM
Details: Insect cell

Chain of Ubiquitin carboxyl-terminal hydrolase 7 (Homo sapiens) (Q93009 whole entry, looked up, the tested form may be a part): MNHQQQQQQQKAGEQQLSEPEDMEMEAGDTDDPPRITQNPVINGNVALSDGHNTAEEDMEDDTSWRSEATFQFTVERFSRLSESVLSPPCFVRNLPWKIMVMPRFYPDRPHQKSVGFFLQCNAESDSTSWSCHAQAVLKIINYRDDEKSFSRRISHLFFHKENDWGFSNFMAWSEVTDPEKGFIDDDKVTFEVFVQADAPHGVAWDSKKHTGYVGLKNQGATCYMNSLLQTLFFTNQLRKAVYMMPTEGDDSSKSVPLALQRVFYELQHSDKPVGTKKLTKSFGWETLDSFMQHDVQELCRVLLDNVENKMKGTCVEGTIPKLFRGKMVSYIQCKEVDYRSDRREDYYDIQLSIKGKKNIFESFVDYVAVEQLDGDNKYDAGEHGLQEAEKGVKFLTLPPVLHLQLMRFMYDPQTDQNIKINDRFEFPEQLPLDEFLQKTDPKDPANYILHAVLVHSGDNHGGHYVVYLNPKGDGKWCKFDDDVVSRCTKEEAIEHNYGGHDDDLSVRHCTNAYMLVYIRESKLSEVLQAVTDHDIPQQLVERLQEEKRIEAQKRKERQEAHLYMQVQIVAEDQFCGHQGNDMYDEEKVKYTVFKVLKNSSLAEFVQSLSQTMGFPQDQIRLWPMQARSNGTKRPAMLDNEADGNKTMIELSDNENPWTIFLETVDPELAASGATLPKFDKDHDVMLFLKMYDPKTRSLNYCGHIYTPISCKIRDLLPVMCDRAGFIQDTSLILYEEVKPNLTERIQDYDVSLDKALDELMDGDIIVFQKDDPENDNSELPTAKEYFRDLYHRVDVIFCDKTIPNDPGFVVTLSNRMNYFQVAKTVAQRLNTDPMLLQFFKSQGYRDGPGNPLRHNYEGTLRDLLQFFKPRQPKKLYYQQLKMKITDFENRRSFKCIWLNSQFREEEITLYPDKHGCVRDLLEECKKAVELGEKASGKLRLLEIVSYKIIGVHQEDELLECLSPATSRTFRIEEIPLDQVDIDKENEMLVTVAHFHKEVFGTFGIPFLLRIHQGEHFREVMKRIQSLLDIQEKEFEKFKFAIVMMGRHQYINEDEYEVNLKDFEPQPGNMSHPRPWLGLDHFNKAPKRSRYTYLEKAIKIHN

| Compound | inhibition |
| --- | --- |
| CCn1ccc(-c2cc(-c3cnn(C)c3)cc([C@@H](C)NC(=O)c3ccccc3CCC(=O)NNC(=O)/C=C/C(=O)N3CC(F)(F)C3)c2)n1 | inactive |
